The results in this text go back to patent US12673946B2, “Pyrimidin-4(3H)-one derivatives as TRPV4 antagonists” (RaQualia Pharma Inc., priority 2020, dated 2026).

Bounds are passed on as bounds.

In the assay the target is T1, human TRPV4 (Homo sapiens, UniProt Q9HBA0).
T1 construct: host or cells: tetracycline-inducible Flp-In T-REx 293 cells
Put plainly: Hypotonicity-induced Ca2+ influx (Fluo-4, FDSS). Type of assay: cell-based. As to the method:
Hypotonicity-Induced Ca^2+ Influx
TRPV4 channel activation/opening results in an influx of Ca^2+ (Liedtke, W. et al., 2000 (NPL 1)). The resulting changes in intracellular calcium are monitored using a Ca^2+ sensitive fluorescent dye Fluo-4 (Invitrogen). Dye loaded cells are treated with the test compounds for 5 minutes prior to the addition of a hypotonic solution and the inhibition of the hypotonicity-induced activation is recorded.
Forty microL of tetracycline-inducible Flp-In T-REx 293 cells (Invitrogen) stably expressing human TRPV4 are seeded onto the poly-D-lysine coated 384-well plate (Corning) at a density of 10,000 cells per well. The following day, TRPV4 expression is induced by adding 0.5 microg/mL tetracycline for 20-24 hours. On the day of the experiment, the media is removed and replaced with 40 microL of dye loading buffer [1 microM Fluo-4 AM (Invitrogen), 0.01% Pluronic F-127, and 20 mM HEPES in Hanks' balanced salt solutions (HBSS; Invitrogen)] and then the cells are incubated for 60 minutes at 25° C. Dye is then removed and replaced with 20 microL of assay buffer (20 mM HEPES in HBSS). Five minutes prior to the fluorescence measurement, 10 microL of test compound is added to the cells. Using the FDSS instrument (Hamamatsu Photonics), 30 microL of hypotonic solution (90 mM D-mannitol and 1.26 mM CaCl2 in ultrapure water) is added 30 seconds after the start of measurement. The calcium flux signal is recorded for a total of 4.5 minutes.

The mark [1] stands for this setting: Flp-In T-REx 293 cells expressing human TRPV4, examples listed under heading 'Human IC50<50 nM'.
Setting [2] is: Flp-In T-REx 293 cells stably expressing human TRPV4, compounds listed by potency bin (<10 nM Tables 96-1/96-2, <3 nM Table 97).

T1 sequence (Q9HBA0 whole entry): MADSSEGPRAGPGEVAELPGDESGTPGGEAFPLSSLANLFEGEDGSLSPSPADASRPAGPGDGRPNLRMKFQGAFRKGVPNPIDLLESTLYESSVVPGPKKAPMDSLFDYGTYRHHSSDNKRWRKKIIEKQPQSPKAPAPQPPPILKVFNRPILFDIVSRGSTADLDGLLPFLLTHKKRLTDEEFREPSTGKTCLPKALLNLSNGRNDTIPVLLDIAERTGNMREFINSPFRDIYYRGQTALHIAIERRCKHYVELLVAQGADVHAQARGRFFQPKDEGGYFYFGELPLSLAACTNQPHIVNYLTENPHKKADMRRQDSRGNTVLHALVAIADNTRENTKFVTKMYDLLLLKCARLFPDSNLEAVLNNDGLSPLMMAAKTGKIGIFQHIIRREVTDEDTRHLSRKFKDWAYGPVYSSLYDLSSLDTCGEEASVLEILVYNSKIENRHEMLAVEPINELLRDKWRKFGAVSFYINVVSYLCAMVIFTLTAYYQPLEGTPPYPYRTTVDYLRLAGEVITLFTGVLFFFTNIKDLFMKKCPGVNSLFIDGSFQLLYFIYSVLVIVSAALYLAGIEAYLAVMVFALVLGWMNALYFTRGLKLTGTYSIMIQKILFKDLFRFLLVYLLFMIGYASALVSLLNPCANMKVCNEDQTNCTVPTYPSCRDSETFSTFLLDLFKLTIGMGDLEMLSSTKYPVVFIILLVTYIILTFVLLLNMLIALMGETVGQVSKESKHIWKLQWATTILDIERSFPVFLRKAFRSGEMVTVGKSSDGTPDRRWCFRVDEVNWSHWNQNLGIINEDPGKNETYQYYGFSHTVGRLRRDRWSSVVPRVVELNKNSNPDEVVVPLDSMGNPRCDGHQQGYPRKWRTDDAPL

Usually IC50 stands for the concentration at which inhibition is half-maximal. A higher IC50 goes with weaker potency. With `O=C(C(O)c1cccc(Cl)c1F)N1CCc2nc(C3(c4ccccc4)CC3)[nH]c(=O)c2C1` (single isomer, unassigned) [3-69], the IC50 under setting [1] is < 50 nM. On the same count and under the same terms, the value for `O=C(C(F)c1ccccc1)N1CCc2nc(C3(c4ccccc4)CC3)[nH]c(=O)c2C1` (stereo not drawn) [2-21] was < 50 nM. As to `O=C([C@H](O)c1cccc(Cl)c1)N1CCc2nc(C3(c4ccccc4)CC3)[nH]c(=O)c2C1` [2-33, (R)-6-(2-(3-chlorophenyl)-2-hydroxyacetyl)-2-(1-phenylcyclopropyl)-5,6,7,8-tetrahydropyrido[4,3-d]pyrimidin-4(3H)-one], the IC50 under setting [1] is < 50 nM.

With `O=C([C@H](O)c1cccc(F)c1F)N1CCc2nc(C3(c4ccccc4)CC3)[nH]c(=O)c2C1` [2-34, (R)-(−)-6-(2-(2,3-difluorophenyl)-2-hydroxyacetyl)-2-(1-phenylcyclopropyl)-5,6,7,8-tetrahydropyrido[4,3-d]pyrimidin-4(3H)-one], under setting [1], the IC50 is < 50 nM. The same measure, in the same setting: the value for `O=C([C@H](O)c1cccc(Cl)c1)N1CCc2nc(C3(c4ccc(Cl)cc4)CC3)[nH]c(=O)c2C1` [3-21] was < 50 nM. Same read-out and setting: in the case of `O=C([C@H](O)c1cccc(Cl)c1)N1CCc2nc(C3(c4ccc(F)cc4)CC3)[nH]c(=O)c2C1` [3-22] it was < 50 nM; in that of `O=C(C(O)c1cccc(F)c1F)N1CCc2nc(C3(c4cccc(F)c4)CC3)[nH]c(=O)c2C1` (stereo not drawn) [3-28], < 50 nM. For the compound `O=C([C@H](O)c1cccc(Cl)c1)N1CCc2nc(C3(c4cccc(F)c4)CC3)[nH]c(=O)c2C1` [3-31], the IC50 under setting [1] was < 50 nM. Same read-out and setting: the value for `O=C([C@H](O)c1cccc(F)c1F)N1CCc2nc(C3(c4cccc(Cl)c4)CC3)[nH]c(=O)c2C1` [3-48] was < 50 nM; that for `O=C([C@H](O)c1cccc(Cl)c1)N1CCc2nc(C3(c4cccc(Cl)c4)CC3)[nH]c(=O)c2C1` [3-50] was < 50 nM; that for `O=C([C@H](O)c1cccc(Cl)c1)N1CCc2nc(C3(c4cc(F)cc(F)c4)CC3)[nH]c(=O)c2C1` [3-58] was < 50 nM.

Consider `O=C(C(O)c1cc(Cl)cc(Cl)c1)N1CCc2nc(C3(c4ccccc4)CC3)[nH]c(=O)c2C1` (stereo not drawn) [3-62], for which the IC50 under setting [1] is < 50 nM. Take `O=C(C(O)c1cccc(C(F)(F)F)c1)N1CCc2nc(C3(c4ccccc4)CC3)[nH]c(=O)c2C1` (stereo not drawn) [3-66]: the IC50 under setting [1] is < 50 nM.

Turning to `O=C(C(O)c1cccc(C(F)(F)F)c1)N1CCc2nc(C3(c4ccc(F)cc4)CC3)[nH]c(=O)c2C1` (stereo not drawn) [3-67], the IC50 under setting [1] was < 50 nM. The same measure, in the same setting: in the case of `O=C([C@H](O)c1cccc(C(F)(F)F)c1)N1CCc2nc(C3(c4ccccc4)CC3)[nH]c(=O)c2C1` [3-71] it was < 50 nM; in that of `O=C([C@H](O)c1cccc(C(F)(F)F)c1)N1CCc2nc(C3(c4cccc(Cl)c4)CC3)[nH]c(=O)c2C1` [3-72], < 50 nM; in that of `O=C([C@H](O)c1cccc(C(F)(F)F)c1)N1CCc2nc(C3(c4cccc(F)c4)CC3)[nH]c(=O)c2C1` [3-73], < 50 nM. Same read-out and setting: the value for `O=C([C@H](O)c1cccc(Cl)c1)N1CCc2nc(C3(c4cccs4)CC3)[nH]c(=O)c2C1` [6-7] was < 50 nM. The same measure, in the same setting: in the case of `O=C([C@H](O)c1cccc(Cl)c1)N1CCc2nc(C3(c4cc(Br)cs4)CC3)[nH]c(=O)c2C1` [6-18] it was < 50 nM; in that of `Cc1csc(C2(c3nc4c(c(=O)[nH]3)CN(C(=O)[C@H](O)c3cccc(Cl)c3)CC4)CC2)c1` [6-20], < 50 nM; in that of `O=C([C@H](O)c1cccc(Cl)c1)N1CCc2nc(C3(c4cc(-c5ccccc5)cs4)CC3)[nH]c(=O)c2C1` [6-21], < 50 nM. As to `O=C([C@H](O)c1cccc(F)c1F)N1CCCc2nc(C3(c4ccccc4)CC3)[nH]c(=O)c2C1` [10-6], the IC50 under setting [1] is < 50 nM. Same read-out and setting: the value for `O=C([C@H](O)c1cccc(Cl)c1)N1CCCc2nc(C3(c4ccccc4)CC3)[nH]c(=O)c2C1` [10-7] was < 50 nM; that for `O=C(C(O)c1ccnc(N2CCCCCC2)c1)N1CCc2nc(C3(c4ccccc4)CC3)[nH]c(=O)c2C1` (stereo not drawn) [11-3] was < 50 nM. For `O=C([C@H](O)c1cccc(Cl)c1)N1CCc2nc(C3(c4cccc(C5CCCCC5)c4)CC3)[nH]c(=O)c2C1` [14-1], the IC50 under setting [1] was < 50 nM and the IC50 under setting [2] was < 3 nM. The like results for `O=C([C@H](O)c1cccc(C(F)(F)F)c1)N1CCc2nc(C3(c4cccc(Oc5ccccc5)c4)CC3)[nH]c(=O)c2C1` [14-2] were, in that order, < 50 nM and < 10 nM. Taken in the same sequence, the figures for `O=C(C(O)c1cccc(-c2cnc3ccccc3c2)c1)N1CCc2nc(C3(c4cccc(Cl)c4)CC3)[nH]c(=O)c2C1` (stereo not drawn) [14-3] were < 50 nM and < 10 nM. Turning to `O=C([C@H](O)c1cccc(Cl)c1)N1CCc2nc(C3(c4cccc(Oc5ccccc5)c4)CC3)[nH]c(=O)c2C1` [14-4], the IC50 is < 50 nM under setting [1] and < 10 nM under setting [2]. The like results for `O=C(C(O)c1cccc(-c2cccc(OC(F)(F)F)c2)c1)N1CCc2nc(C3(c4cccc(Cl)c4)CC3)[nH]c(=O)c2C1` (stereo not drawn) [14-5] were, in that order, < 50 nM and < 10 nM. The like results for `O=C(C(O)c1cccc(-c2cccc(C(F)(F)F)c2)c1)N1CCc2nc(C3(c4cccc(F)c4)CC3)[nH]c(=O)c2C1` (stereo not drawn) [14-6] were, in that order, < 50 nM and < 10 nM. The like results for `O=C(C(O)c1cccc(-c2cccc(OC(F)(F)F)c2)c1)N1CCc2nc(C3(c4cccc(F)c4)CC3)[nH]c(=O)c2C1` (stereo not drawn) [14-7] were, in that order, < 50 nM and < 10 nM. Take `O=C(C(O)c1cccc(-c2cccc(C(F)(F)F)c2)c1)N1CCc2nc(C3(c4cccc(Cl)c4)CC3)[nH]c(=O)c2C1` (stereo not drawn) [14-8]: the IC50 runs as follows: under setting [1], < 50 nM; under setting [2], < 10 nM.

With `O=C(C(O)c1cccc(-c2ccc(Cl)cc2)c1)N1CCc2nc(C3(c4cccc(Cl)c4)CC3)[nH]c(=O)c2C1` (stereo not drawn) [14-9], the IC50 was < 50 nM under setting [1] and < 10 nM under setting [2]. The like results for `O=C([C@H](O)c1cccc(Cl)c1)N1CCc2nc(C3(c4cccc(-c5ccccc5)c4)CC3)[nH]c(=O)c2C1` [14-10] were, in that order, < 50 nM and < 10 nM. The like results for `CC(C)(C)c1cccc(C(O)C(=O)N2CCc3nc(C4(c5cccc(Cl)c5)CC4)[nH]c(=O)c3C2)c1` (stereo not drawn) [14-11] were, in that order, < 50 nM and < 10 nM.

On to `O=C(C(O)c1cccc(-c2cccc(F)c2)c1)N1CCc2nc(C3(c4cccc(Cl)c4)CC3)[nH]c(=O)c2C1` (stereo not drawn) [14-12], for which the IC50 is, setting by setting: under setting [1], < 50 nM; under setting [2], < 10 nM. Taken in the same sequence, the figures for `CC(C)c1cccc(C2(c3nc4c(c(=O)[nH]3)CN(C(=O)[C@H](O)c3cccc(Cl)c3)CC4)CC2)c1` [14-13] were < 50 nM and < 10 nM. In the case of `O=C(C(O)c1cccc(Oc2cccc(C(F)(F)F)c2)c1)N1CCc2nc(C3(c4ccccc4)CC3)[nH]c(=O)c2C1` (stereo not drawn) [14-14], the IC50 under setting [1] was < 50 nM. Still for that read-out and setting: in the case of `O=C(C(O)c1cccc(C2CC2)c1)N1CCc2nc(C3(c4cccc(Cl)c4)CC3)[nH]c(=O)c2C1` (stereo not drawn) [14-15] it was < 50 nM; in that of `CC(C)c1cccc(C(O)C(=O)N2CCc3nc(C4(c5cccc(Cl)c5)CC4)[nH]c(=O)c3C2)c1` (stereo not drawn) [14-16], < 50 nM; in that of `O=C(C(O)c1cccc(S(F)(F)(F)(F)F)c1)N1CCc2nc(C3(c4cccc(Cl)c4)CC3)[nH]c(=O)c2C1` (stereo not drawn) [14-17], < 50 nM. With `O=C(C(O)c1cccc(SC(F)(F)F)c1)N1CCc2nc(C3(c4cccc(Cl)c4)CC3)[nH]c(=O)c2C1` (stereo not drawn) [14-18], the IC50 under setting [1] was < 50 nM. The same measure, in the same setting: in the case of `O=C(C(O)c1cccc(-c2cccc(F)c2)c1)N1CCc2nc(C3(c4cccc(F)c4)CC3)[nH]c(=O)c2C1` (stereo not drawn) [14-19] it was < 50 nM; in that of `O=C(C(O)c1cccc(C(F)(F)F)c1F)N1CCc2nc(C3(c4cccc(Cl)c4)CC3)[nH]c(=O)c2C1` (stereo not drawn) [14-20], < 50 nM.

Take `O=C(C(O)c1cccc(Oc2ccccc2)c1)N1CCc2nc(C3(c4cccc(Cl)c4)CC3)[nH]c(=O)c2C1` (stereo not drawn) [14-21]: the IC50 under setting [1] was < 50 nM. With `CC(C)(C)c1cccc(C(O)C(=O)N2CCc3nc(C4(c5cccc(F)c5)CC4)[nH]c(=O)c3C2)c1` (stereo not drawn) [14-22], the IC50 under setting [1] was < 50 nM. Turning to `O=C(C(O)c1cccc(S(F)(F)(F)(F)F)c1)N1CCc2nc(C3(c4cccc(F)c4)CC3)[nH]c(=O)c2C1` (stereo not drawn) [14-23], the IC50 under setting [1] is < 50 nM. Take `O=C(C(O)c1cccc(-c2ccc(Cl)cc2)c1)N1CCc2nc(C3(c4cccc(F)c4)CC3)[nH]c(=O)c2C1` (stereo not drawn) [14-24]: the IC50 under setting [1] is < 50 nM.

For the compound `O=C(C(O)c1cccc(SC(F)(F)F)c1)N1CCc2nc(C3(c4ccccc4)CC3)[nH]c(=O)c2C1` (stereo not drawn) [14-25], the IC50 under setting [1] was < 50 nM. Consider `O=C([C@H](O)c1cccc(Cl)c1)N1CCc2nc(C3(c4cccc(Br)c4)CC3)[nH]c(=O)c2C1` [14-26], for which the IC50 under setting [1] is < 50 nM.

With `O=C(C(O)c1cccc(SC(F)(F)F)c1)N1CCc2nc(C3(c4cccc(F)c4)CC3)[nH]c(=O)c2C1` (stereo not drawn) [14-27], the IC50 under setting [1] is < 50 nM.

Consider `O=C(C(O)c1cccc(Cl)c1F)N1CCc2nc(C3(c4cccc(Cl)c4)CC3)[nH]c(=O)c2C1` (stereo not drawn) [14-28], for which the IC50 under setting [1] was < 50 nM. As to `O=C(C(O)c1cccc(C(F)(F)F)c1F)N1CCc2nc(C3(c4cccc(F)c4)CC3)[nH]c(=O)c2C1` (stereo not drawn) [14-29], under setting [1], the IC50 is < 50 nM.
